According to PubChem BioAssay (NCI):
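Grown in 96-well plates, cells were treated for 48 hours with each compound at five concentrations. Insufficient inhibition: endpoint recorded as highest concentration tested. At the TGI there is no net growth.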

How the values were obtained:
Test in all cases: NCI-60 cell line screen, 48 h
MDA-N = tested on: MDA-N
SF-295 CNS = tested on: SF-295 CNS
HOP-62 NSCLC = tested on: HOP-62 NSCLC
BT-549 breast = tested on: BT-549 breast
UACC-257 melanoma = tested on: UACC-257 melanoma
HL-60(TB) leukemia = tested on: HL-60(TB) leukemia
SNB-19 CNS = tested on: SNB-19 CNS
HCC-2998 colon = tested on: HCC-2998 colon
LOX IMVI melanoma = tested on: LOX IMVI melanoma
M14 melanoma = tested on: M14 melanoma
KM12 colon = tested on: KM12 colon
CCRF-CEM leukemia = tested on: CCRF-CEM leukemia
MALME-3M melanoma = tested on: MALME-3M melanoma
SR leukemia = tested on: SR leukemia
TK-10 renal = tested on: TK-10 renal
RPMI-8226 leukemia = tested on: RPMI-8226 leukemia
SK-MEL-28 melanoma = tested on: SK-MEL-28 melanoma
OVCAR-4 ovarian = tested on: OVCAR-4 ovarian
MOLT-4 leukemia = tested on: MOLT-4 leukemia
U251 CNS = tested on: U251 CNS
DU-145 prostate = tested on: DU-145 prostate
MCF7 breast = tested on: MCF7 breast
ACHN renal = tested on: ACHN renal
HCT-15 colon = tested on: HCT-15 colon
COLO 205 colon = tested on: COLO 205 colon
UO-31 renal = tested on: UO-31 renal
OVCAR-5 ovarian = tested on: OVCAR-5 ovarian
OVCAR-8 ovarian = tested on: OVCAR-8 ovarian
NCI/ADR-RES ovarian = tested on: NCI/ADR-RES ovarian
NCI-H23 lung = tested on: NCI-H23 lung
HCT-116 colon = tested on: HCT-116 colon
MDA-MB-435 = tested on: MDA-MB-435
K-562 leukemia = tested on: K-562 leukemia
HT29 colon = tested on: HT29 colon
HOP-92 NSCLC = tested on: HOP-92 NSCLC
SK-MEL-2 melanoma = tested on: SK-MEL-2 melanoma
SN12C renal = tested on: SN12C renal
PC-3 prostate = tested on: PC-3 prostate
OVCAR-3 ovarian = tested on: OVCAR-3 ovarian
NCI-H460 lung = tested on: NCI-H460 lung
EKVX NSCLC = tested on: EKVX NSCLC
MDA-MB-231 breast = tested on: MDA-MB-231 breast
SK-MEL-5 melanoma = tested on: SK-MEL-5 melanoma
A549 NSCLC = tested on: A549 NSCLC
CAKI-1 renal = tested on: CAKI-1 renal

Measured: TGI

O=c1[nH]nc(NCc2ccccc2)c2nnn(Cc3ccccc3)c12
> 100 µM: MDA-N | SF-295 CNS | HOP-62 NSCLC | BT-549 breast | UACC-257 melanoma | HL-60(TB) leukemia | SNB-19 CNS | HCC-2998 colon | LOX IMVI melanoma | M14 melanoma | KM12 colon | CCRF-CEM leukemia | MALME-3M melanoma | SR leukemia | TK-10 renal | RPMI-8226 leukemia | SK-MEL-28 melanoma | OVCAR-4 ovarian | MOLT-4 leukemia | U251 CNS | DU-145 prostate | MCF7 breast | ACHN renal | HCT-15 colon | COLO 205 colon | UO-31 renal | OVCAR-5 ovarian | OVCAR-8 ovarian | NCI/ADR-RES ovarian | NCI-H23 lung | HCT-116 colon | MDA-MB-435 | K-562 leukemia | HT29 colon | HOP-92 NSCLC | SK-MEL-2 melanoma | SN12C renal | PC-3 prostate | OVCAR-3 ovarian | NCI-H460 lung | EKVX NSCLC | MDA-MB-231 breast | SK-MEL-5 melanoma | A549 NSCLC | CAKI-1 renal
